Measured values as given in ChEMBL document CHEMBL4665733, “Selective thyroid hormone receptor β agonists with oxadiazolone acid isosteres” (Bioorg Med Chem Lett, 2020).
Calls of active or inactive are those of the source. No cut-off for these calls is given here.

How the values were obtained:
Homo sapiens = organism: Homo sapiens; test: Selectivity index, ratio of EC50 for THRalpha (unknown origin) to EC50 for THRbeta (unknown origin)
Rattus norvegicus = organism: Rattus norvegicus; test: Antihyperlipidemic activity in high cholesterol diet-induced Sprague-Dawley rat model of hypercholesterolemia assessed as reduction in serum total cholesterol level after 24 hrs; format: functional, organism-based
Mus musculus [1] = test: Agonist activity at THRbeta in C57BL/6J mouse model of NASH assessed as increase in CYP7A1 gene expression in liver at 30 mg/kg, po via gavage administered once daily for 28 days; format: functional, organism-based; details: time 28.0 day
Mus musculus [2] = test: Agonist activity at THRbeta in C57BL/6J mouse model of NASH assessed as increase in Dio1 gene expression in liver at 30 mg/kg, po via gavage administered once daily for 28 days; format: functional, organism-based; details: time 28.0 day
Mus musculus [3] = test: Antifibrotic activity in CCl4-induced C57BL/6J mouse model of liver fibrosis assessed as reduction in liver fibrosis at 30 mg/kg, po via gavage administered once daily for 28 days by Sirius Red staining based histological analysis; format: functional, organism-based; details: time 28.0 day
Mus musculus [4] = test: Anti-hepatosteatosis activity in C57BL/6J mouse model of high fat-induced obesity assessed as reduction in liver steatosis at 30 mg/kg, po via gavage administered once daily for 28 days by hematoxylin-eosin staining based histological analysis; format: functional, organism-based; details: time 28.0 day
[5] = AUC (0 to 24 hrs) in C57BL/6J mouse at 30 mg/kg, po administered via gavage as single dose; format: ADME, organism-based; parameters: time < 24 hr, route oral, dose 30 mg/kg; details: in vivo
[6] = Dissociation constant, pKa of compound; format: physicochemical
[7] = Oral bioavailability in Sprague-Dawley rat at 2 mg/kg; format: ADME, organism-based; details: in vivo
[8] = Volume of distribution at steady state in Sprague-Dawley rat at 1 mg/kg, iv and 2 mg/kg, po; format: ADME, organism-based; details: in vivo, read-out: Vdss
[9] = Plasma clearance in Sprague-Dawley rat at 1 mg/kg, iv and 2 mg/kg, po; format: ADME, organism-based
[10] = Tmax in Sprague-Dawley rat at 3 mg/kg, ip; format: ADME, organism-based; details: in vivo
[11] = MRT in Sprague-Dawley rat at 3 mg/kg, ip; format: ADME, organism-based; details: in vivo
[12] = Half life in Beagle dog at 10 mg/kg, po measured up to 24 hrs by LC-MS/MS analysis; format: ADME, organism-based, Canis lupus familiaris; details: in vivo
[13] = Half life in cynomolgus monkey at 10 mg/kg, po measured up to 24 hrs by LC-MS/MS analysis; format: ADME, organism-based, Macaca fascicularis; details: in vivo
[14] = Half life in Sprague-Dawley rat at 10 mg/kg, po measured up to 24 hrs by LC-MS/MS analysis; format: ADME, organism-based; details: in vivo

Structure (SMILES)	Ratio EC50 (Homo sapiens)	other results
CC(C)c1cc(C(=O)c2c(Cl)cc(NCc3noc(=O)[nH]3)cc2Cl)nn(C)c1=O	0.8	
CC(C)c1cc(Cc2c(Cl)cc(NCc3noc(=O)[nH]3)cc2Cl)nn(C)c1=O	1.7	
CCC(O)c1cc(Oc2c(Cl)cc(NC(=O)c3noc(=O)[nH]3)cc2Cl)n[nH]c1=O (racemic)	16.2	
CC(C)(O)c1cc(Oc2c(Cl)cc(NC(=O)c3noc(=O)[nH]3)cc2Cl)n[nH]c1=O	11.1	
CC(C)c1cc(Oc2c(Cl)cc(NC(=O)c3noc(=O)[nH]3)cc2Cl)n[nH]c1=O	21.6	Activity (Rattus norvegicus): Dose-dependent effect
CC(C)c1cc(Oc2c(Cl)cc(-n3nc(C#N)c(=O)[nH]c3=O)cc2Cl)n[nH]c1=O	15	
CC(C)(C)c1cc(Oc2c(Cl)cc(NC(=O)c3noc(=O)[nH]3)cc2Cl)n[nH]c1=O	12.3	
CC(O)c1cc(Oc2c(Cl)cc(NC(=O)c3noc(=O)[nH]3)cc2Cl)n[nH]c1=O (racemic)	16.5	
CC(C)c1cc(Cc2c(Cl)cc(NC(=O)c3noc(=O)[nH]3)cc2Cl)nn(C)c1=O	14.5	
Cc1cc(OCP(=O)(O)O)cc(C)c1Cc1ccc(O)c(C(C)C)c1 [MB07344]	2.1	half-life [12]: 10.2 h; half-life [13]: 6.5 h; half-life [14]: 9.3 h
CC(C)c1cc(C(=O)c2c(Cl)cc(NC(=O)c3noc(=O)[nH]3)cc2Cl)nn(C)c1=O	6.1	

Now from value to molecule, other results behind:

Ratio EC50 (Homo sapiens)	Structure (SMILES)	other results
0.5	CC(C)c1cc(Oc2c(Cl)cc(N(C)Cc3noc(=O)[nH]3)cc2Cl)nn(C)c1=O	
8.6	CC(C)c1cc(Oc2c(Cl)cc(NCc3noc(=O)[nH]3)cc2Cl)nn(C)c1=O	
9.2	CC(CO)c1cc(Oc2c(Cl)cc(NC(=O)c3noc(=O)[nH]3)cc2Cl)nn(C)c1=O (racemic)	
1.8	CC(C)c1cc(Oc2c(Cl)cc(NCc3noc(=O)[nH]3)cc2Cl)n[nH]c1=O	
0.2	CC(C)c1cc(Oc2c(Cl)cc(NC(C)c3noc(=O)[nH]3)cc2Cl)nn(C)c1=O (racemic)	
14.1	CC(C)c1cc(Oc2c(Cl)cc(NC(=O)c3noc(=O)[nH]3)cc2Cl)nn(C)c1=O	Activity (Mus musculus [1]): Active; Activity (Mus musculus [2]): Active; Activity (Mus musculus [3]): Active; Activity (Mus musculus [4]): Active; AUC(0-t) at 24 h [5]: 17200 ng·h/mL; pKa [6]: 4.5; bioavailability [7]: 24%; Vd [8]: 0.53 L/kg; clearance [9]: 13 mL/min/kg; Tmax [10]: 1 h; MRT [11]: 1.8 h; Activity (Rattus norvegicus): Dose-dependent effect
